# Source: patent US20260151384A1, “ISOQUINOLINE DERIVATIVES AS PROTEIN DEGRADERS, E7 DEGRADERS, ANTIVIRALS, TUMOR THERAPEUTICS AND IMMUNE SUPPRESSIVES” (priority 2022, published 2026)
# Values joined by “and” are separate entries in the source; they are usually repeats but may differ in a detail not shown here. Equal entries are not always repeated.
# Tests used:
# SARS-CoV-2 = assay: microbe, parasite or virus in culture; assay type: cell-based; settings: for % Inhibition of SARV-CoV-2 virus activity: 1.25 μM, n4
# [1] = system: human cervical carcinoma (CaSki) xenograft; assay: Antitumor efficacy on CaSki human cervical carcinoma xenograft model; assay type: in vivo, nude mice; settings: for % TGI (Day 44), percentage tumor growth inhibition with respect to controls: OC246/OC974 2 mg/kg os
# Protocol: The aim of this study was to assess the in vivo efficacy of OC246 and OC974 on a human cervical carcinoma (CaSki) xenograft model in nude mice. OC246 and OC974 were administered oral once daily for four times with three days off, for three cycles at 2 mg/kg/dose. Cisplatin (CDDP) was used as a reference compound with three weekly intravenous (q7dx3) administrations of 6 mg/kg.
# CaSki cells [2] = assay: Monolayer assay using Sulphorhodamine B (SRB) staining, CaSki; assay type: cell-based, human
# CaSki cells [3] = assay: Cell cycle analysis using Propidium-Iodide staining (flow cytometry); assay type: cell-based, human; settings: 48 hour incubation
# Protocol: Propidium-Iodide (PI) DNA staining is performed to facilitate cell cycle analysis. For PI-DNA staining, fixed cells and eventually antibody-stained cells are resuspended in 450 μl of PBS (per 10^6 cells) and incubated with 100 μg/ml RNase (stock 1 mg/ml, in PBS) for 10 minutes at 37° C. Cells are then incubated with 5 μg/106 cells of PI (stock 1 mg/ml in PBS) for 10 minutes at room temperature. Samples are stored at 4° C. until CF analysis.
# CaSki cells were incubated with various compounds and cell cycle distribution of the cells was assessed using Propidium-Iodide staining.
# In order to analyze the cytostatic versus the cytotoxic effect of OC compounds, cell cycle profiles were analyzed in vitro after 48 hour incubations using Flow Cytometry as a read out. For this a cell cycle analysis from selected OC E7 degrader compounds was conducted in CaSki cells. Using 6 well plates, 1.5×10^5 cells were seeded for each well and grown over night at 37° C. 5% CO2. For analysis of the cell cycle behavior, cells were analyzed in the presence of propidium Iodide (PI^−) by flow cytometry (FC). Briefly, cells were detached by trypsin digestion, all supernatants were included in the analysis, and fixed with 70% ice cold ethanol and stored at 4° C. until FC analysis using P1^− staining (1 mg/ml). At least 7000 events were acquired for each sample.
# HPV16 E7 protein = HPV16 E7 protein (Human papillomavirus type 16, UniProt P03129); assay type: cell-based; settings: for % Dad: adjusted degradation, CHX steady state set to 100%, Table 2 screen
# Sequence of HPV16 E7 protein (P03129 whole entry): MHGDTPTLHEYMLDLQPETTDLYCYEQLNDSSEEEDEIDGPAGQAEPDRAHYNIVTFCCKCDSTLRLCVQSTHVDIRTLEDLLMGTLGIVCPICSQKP
smiles,measurement,setting,value
COc1ccc2cc1Oc1ccc(cc1)C[C@H]1c3c(cc4c(c3Oc3cc5c(cc3OC)CCN(C)[C@@H]5C2)OCO4)CCN1C [Cepharantin],% Inhibition of SARV-CoV-2 virus activity,SARS-CoV-2,2.32%
"[NH2][Pt]([NH2])([Cl])[Cl] [CDDP, Cisplatin, reference compound]","% TGI (Day 44), percentage tumor growth inhibition with respect to controls",[1]; CDDP 6 mg/kg i.v. q7dx3,79.2%
CS(=O)(=O)O.Cc1c(O)cccc1C(=O)N[C@@H](CSc1ccccc1)[C@H](O)CN1C[C@H]2CCCC[C@H]2C[C@H]1C(=O)NC(C)(C)C [Neifinavir-Mesylat],% Inhibition of SARV-CoV-2 virus activity,SARS-CoV-2,9.49%
"CN1CCC(CN2C(=O)c3ccccc3[C@@H](C(=O)Nc3cccc(N4CCN(C)CC4)c3)[C@@H]2c2ccc(C(F)(F)F)cc2)CC1 (relative stereo) [OC974, rel-(3R,4R)-N-(3-(4-methylpiperazin-1-yl)phenyl)-2-((1-methylpiperidin-4-yl)methyl)-1-oxo-3-(4-(trifluoromethyl)phenyl)-1,2,3,4-tetrahydroisoquinoline-4-carboxamide]",EC50,"CaSki cells [2]; Homo sapiens, Ca-Ski, read-out: EC50 mean [nM]",1550 nM
same,Tumor Volume Day 44 (mm^3 ± SD),"[1]; OC246/OC974 2 mg/kg os daily 4 x week 3 cycles, CDDP 6 mg/kg i.v. q7dx3, n = 7, control 1099 ± 503",307 ± 171 mm^3
same,"% TGI (Day 44), percentage tumor growth inhibition with respect to controls",[1]; CDDP 6 mg/kg i.v. q7dx3,63.9%
same,Δ% Body Weight,"[1]; between first day of treatment (day 20) and Day 44, control +4.9",+1.1%
same,Δ% on Day 44,"[1]; same schedules, control 100",23%
same,G1/5 μM,"CaSki cells [3]; 5 μM, % cells in G1, no treatment 53.3",49.6%
same,G2/5 μM,"CaSki cells [3]; 5 μM, % cells in G2, no treatment 15.6",9.9%
same,A*/5 μM (Apoptosis as measured from total SUB G1 content),"CaSki cells [3]; 5 μM, no treatment 15.0",19.5%
same,G1/10 μM,"CaSki cells [3]; 10 μM, % cells in G1, no treatment 53.3",8.7%
same,G2/10 μM,"CaSki cells [3]; 10 μM, % cells in G2, no treatment 15.6",0.8%
same,A*/10 μM (Apoptosis as measured from total SUB G1 content),"CaSki cells [3]; 10 μM, no treatment 15.0",82.9% and 81.8%
same,inhibition at 1.25 µM,"SARS-CoV-2; Severe acute respiratory syndrome coronavirus 2, n4, read-out: % Inhibition of SARV-CoV-2 virus activity",54.3%
Cc1ccc(CN2C(=O)c3ccccc3C(C(=O)NCc3ccc(C(C)C)cc3)C2c2ccc(Cl)cc2)cc1 (stereo not drawn) [OC254],% Dad,HPV16 E7 protein,16%
Nc1ccc(-c2ccc3ncc4ccc(=O)n(-c5cccc(C(F)(F)F)c5)c4c3c2)cn1 [Torin2],% Inhibition of SARV-CoV-2 virus activity,SARS-CoV-2,1.46%
CCNC(=O)N1CCN(C(=O)C2c3ccccc3C(=O)N(Cc3ccc(C)cc3)C2c2ccc(Cl)cc2)CC1 (stereo not drawn) [OC257],% Dad,HPV16 E7 protein,12%
Cc1ccc(CN2C(=O)c3ccccc3C(C(=O)NCc3ccc(Cl)cc3)C2c2ccc(Cl)cc2)cc1 (stereo not drawn) [OC253],% Dad,HPV16 E7 protein,0%
c1c2c(cc3c1OCO3)-c1cc3ccc4c(c3c[n+]1CC2)OCO4 [Coptisin],% Inhibition of SARV-CoV-2 virus activity,SARS-CoV-2,98.97%
CCC(=O)N1CCN(c2ccc(-n3c(=O)ccc4cnc5ccc(-c6cnc7ccccc7c6)cc5c43)cc2C(F)(F)F)CC1 [Torin1],% Inhibition of SARV-CoV-2 virus activity,SARS-CoV-2,7.00%
"C[C@@H]1C[C@@H]([C@H](O)CC2CC(=O)NC(=O)C2)C(=O)[C@@H](C)C1 [CHX, Cycloheximide, reference compound]",% Dab,"HPV16 E7 protein; CaSki cells, 10 μM, four hours, CHX set to 100%",100%
same,Measured MFI (mean fluorescence intensity) of E7 signal,"HPV16 E7 protein; CaSki cells, 10 μM, four hours, vehicle T 8.06",1.71
"COc1ccc2c(c1)C(=O)N(CC1CCN(C)CC1)[C@@H](c1ccc(C(F)(F)F)cc1)[C@@H]2C(=O)Nc1cccc(N2CCN(C)CC2)c1 (relative stereo) [VS977, rel-(3R,4R)-7-methoxy-N-(3-(4-methylpiperazin-1-yl)phenyl)-2-((1-methylpiperidin-4-yl)methyl)-1-oxo-3-(4-(trifluoromethyl)phenyl)-1,2,3,4-tetrahydroisoquinoline-4-carboxamide]","SRB anti-neoplastic effect compared among VS035, VS977, VS978, OC969","CaSki cells [2]; CaSki, Test 21, FIG. 12",strongest effect
